The source of these data is paper PMC10525509, “Exploring the Synthetic Chemistry of Phenyl-3-(5-aryl-2-furyl)- 2-propen-1-ones as Urease Inhibitors: Mechanistic Approach through Urease Inhibition, Molecular Docking and Structure–Activity Relationship” (Biomedicines, 2023).

The IC50 is the concentration that inhibits the measured activity by half. As usually defined, the inhibition is the relative decrease from the control value, in per cent.

This test deals with T1, urease enzyme (Canavalia ensiformis, UniProt P07374).
T1 construct: purchased CAS Number: 9002-13-5
T1 sequence (P07374 whole entry, looked up): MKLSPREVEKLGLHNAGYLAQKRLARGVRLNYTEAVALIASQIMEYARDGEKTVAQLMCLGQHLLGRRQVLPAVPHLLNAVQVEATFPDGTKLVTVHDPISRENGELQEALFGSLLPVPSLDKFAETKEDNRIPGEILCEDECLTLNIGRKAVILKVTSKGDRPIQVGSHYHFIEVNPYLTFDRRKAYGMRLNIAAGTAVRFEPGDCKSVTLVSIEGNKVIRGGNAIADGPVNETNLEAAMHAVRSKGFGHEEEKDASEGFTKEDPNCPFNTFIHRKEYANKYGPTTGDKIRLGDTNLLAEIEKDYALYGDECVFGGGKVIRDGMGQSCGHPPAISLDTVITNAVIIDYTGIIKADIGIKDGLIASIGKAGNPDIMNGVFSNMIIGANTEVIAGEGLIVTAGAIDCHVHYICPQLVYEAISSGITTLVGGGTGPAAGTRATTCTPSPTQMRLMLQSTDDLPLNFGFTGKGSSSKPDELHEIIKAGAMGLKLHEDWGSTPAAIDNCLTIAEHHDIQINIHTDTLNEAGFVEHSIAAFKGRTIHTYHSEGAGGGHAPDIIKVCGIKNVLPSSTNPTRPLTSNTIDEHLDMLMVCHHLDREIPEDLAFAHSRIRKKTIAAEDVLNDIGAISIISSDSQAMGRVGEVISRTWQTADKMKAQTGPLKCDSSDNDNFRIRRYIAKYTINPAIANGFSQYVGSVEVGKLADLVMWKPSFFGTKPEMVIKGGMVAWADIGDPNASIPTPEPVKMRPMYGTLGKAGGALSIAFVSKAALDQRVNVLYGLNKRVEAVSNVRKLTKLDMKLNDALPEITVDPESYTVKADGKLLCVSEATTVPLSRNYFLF
Briefly: Urease inhibition assay (modified Berthelot assay). In kind it is biochemical, Canavalia ensiformis (Jack bean). The note with it: for inhibition at 100 µM: read-out: %Age Urease Inhibition Activity (0.1 mM). On the procedure: Chalcones are important medicinal compounds to combat several pathological conditions associated with ureolytic enzymes (urease). […] Urease inhibition assay was performed according to the reported protocol by Pervez et al..
All reagents and solvents were obtained from the supplier or recrystallized or redistilled as necessary. Thin-layer chromatography was performed using aluminum sheets (Merck) coated with silica gel 60 F254. Urease enzyme was purchased from Canavalia ensiformis (Jack bean), CAS Number: 9002-13-5. IR spectra were recorded using an IR PerkinElmer Spectrum 1 FTIR spectrophotometer, and peaks were reported as ax (neat)/cm^−1, which refer to the […] wave numbers. Proton magnetic resonance spectra were recorded in CDCl3 with a Bruker AM 300 spectrometer (Rheinstetten-Forchheim, Germany) operating at 300 MHz, respectively. The ^13C NMR spectra were recorded in CDCl3 with a Bruker AM 100 spectrometer operating at 100 MHz. Tetramethylsilane was used as an internal standard. Elemental analyses for C, H, and N were recorded with the PerkinElmer 2400 Series II CHN Analyzer. Melting points were recorded on a GallenKamp apparatus and are uncorrected.
The enzyme assay is a modified form of the commonly known Berthelot assay. A total volume of 85 µL assay mixture contained 10 µL of phosphate buffer at pH 7.0 in each well of the 96-well plate, to which 10 µL of sample solution and 25 µL of enzyme solution (0.1347 units) were added. The contents were pre-incubated at 37 °C for 5 min. Then, 40 µL of urea stock solution (20 mM) was added to each well, and incubation continued at 37 °C for another 10 min. After the given time, 115 µL phenol hypochlorite reagent was added to each well (freshly prepared by mixing 45 µL phenol reagent with 70 µL of alkali reagent). For color development, incubation was performed at 37 °C for another 10 min. Absorbance was measured at 625 nm using the 96-well plate reader Synergy HT.

Turning to `O=C(/C=C/c1ccc(-c2ccc([N+](=O)[O-])cc2)o1)c1ccccc1` [Compound 4a], the half-inhibitory concentration (IC50) worked out at 91.9 ± 2.24 µM and the inhibition at 100 µM is 50.7 ± 0.62%.

For `O=C(/C=C/c1ccc(-c2ccc(Cl)cc2)o1)c1ccccc1` [Compound 4b], the “urease inhibition activity (in words)” value was “inactive” and the inhibition at 100 µM turned out to be 27.15 ± 0.17%.

Consider `O=C(/C=C/c1ccc(-c2ccc(Br)cc2)o1)c1ccccc1` [Compound 4c], for which the “urease inhibition activity (in words)” value is “inactive” and the inhibition at 100 µM is 39.41 ± 0.34%.

Consider `O=C(/C=C/c1ccc(-c2cccc([N+](=O)[O-])c2)o1)c1ccccc1` [Compound 4d], for which the “urease inhibition activity (in words)” value is “inactive” and the inhibition at 100 µM was 46.5 ± 0.91%.

Regarding `O=C(O)c1ccc(-c2ccc(/C=C/C(=O)c3ccccc3)o2)cc1` [Compound 4e], the IC50 worked out at 25 ± 1.77 µM, the “urease inhibition activity (in words)” value is “inactive” and the inhibition at 100 µM was 65.5 ± 0.77%.

For the compound `O=C(/C=C/c1ccc(-c2ccc(Cl)c(Cl)c2)o1)c1ccccc1` [Compound 4f, 1-phenyl-3-[5-(3′,4′-dichlorophenyl) -2-furyl]-2-propen-1-one], the IC50 came out at 21 ± 3.52 µM and the inhibition at 100 µM came out at 69.7 ± 1.86%.

On to `O=C(/C=C/c1ccc(-c2cc(Cl)cc(Cl)c2)o1)c1ccccc1` [Compound 4g], for which the “urease inhibition activity (in words)” value was “inactive” and the inhibition at 100 µM was determined as 39.7 ± 2.46%.

As for `O=C(/C=C/c1ccc(-c2cc(Cl)ccc2Cl)o1)c1ccccc1` [Compound 4h, 1-phenyl-3-[5-(2′,5′-dichlorophenyl)-2-furyl]-2-propen-1-one], the IC50 was 16.1 ± 2.45 µM and the inhibition at 100 µM is 66.2 ± 1.36%.

As for `O=C(/C=C/c1ccc(-c2cc(Cl)ccc2[N+](=O)[O-])o1)c1ccccc1` [Compound 4i], the IC50 was 90.8 ± 8.99 µM and the inhibition at 100 µM amounted to 51.7 ± 1.62%.

`O=C(/C=C/c1ccc(-c2cccc(Cl)c2[N+](=O)[O-])o1)c1ccccc1` [Compound 4j]: the IC50 came out at 26 ± 2.25 µM and the inhibition at 100 µM was determined as 68.24 ± 0.11%.

For the compound `O=C(/C=C/c1ccc(-c2cccc(Cl)c2)o1)c1ccccc1` [Compound 4k], the IC50 is 23.1 ± 3.65 µM and the inhibition at 100 µM was 69.52 ± 0.16%.

As for `O=C(/C=C/c1ccc(-c2ccccc2[N+](=O)[O-])o1)c1ccccc1` [Compound 4l], the IC50 amounted to 91.4 ± 6.25 µM and the inhibition at 100 µM is 51.47 ± 0.41%.

As to `O=C(/C=C/c1ccc(-c2ccc([N+](=O)[O-])cc2Cl)o1)c1ccccc1` [Compound 4m], the IC50 turned out to be 26.7 ± 0.65 µM and the inhibition at 100 µM came to 63.1 ± 0.86%.

Turning to `O=C(O)c1cccc(-c2ccc(/C=C/C(=O)c3ccccc3)o2)c1` [Compound 4n], the 50% inhibitory concentration (IC50) is 46.8 ± 5.44 µM and the inhibition at 100 µM was determined as 62.3 ± 1.28%.

As for `O=C(/C=C/c1ccc(-c2ccc(Cl)cc2Cl)o1)c1ccccc1` [Compound 4o], the IC50 came out at 34 ± 9.61 µM and the inhibition at 100 µM was found to be 54.9 ± 1.98%.

As for `Cc1cc(-c2ccc(/C=C/C(=O)c3ccccc3)o2)cc([N+](=O)[O-])c1` [Compound 4p], the IC50 worked out at 52.6 ± 8.52 µM and the inhibition at 100 µM is 57.4 ± 3.02%.

With `O=C(/C=C/c1ccc(-c2ccc([N+](=O)[O-])cc2[N+](=O)[O-])o1)c1ccccc1` [Compound 4q], the 50% inhibitory concentration (IC50) was 44.4 ± 6.91 µM and the inhibition at 100 µM amounted to 54.7 ± 0.73%.

In the case of `Cc1c(-c2ccc(/C=C/C(=O)c3ccccc3)o2)cccc1[N+](=O)[O-]` [Compound 4r], the “urease inhibition activity (in words)” value is “inactive” and the inhibition at 100 µM turned out to be 12.6 ± 3.37%.

For the compound `O=C(/C=C/c1ccc(-c2ccccc2Cl)o1)c1ccccc1` [Compound 4s, 1-phenyl-3-[5-(2′-chlorophenyl)-2-furyl]-2-propen-1-one], the IC50 was found to be 18.7 ± 0.85 µM and the inhibition at 100 µM came out at 71.4 ± 1.77%.
